Measured values published in patent US20250340552A1, “COMPOUNDS, COMPOSITIONS AND METHODS OF TREATING DISORDERS” (HOTSPOT THERAPEUTICS, INC., priority 2022, published 2025).
Read-outs that look alike come from different tables or passages of the source.

Target: T1, Cbl-B (Homo sapiens, UniProt Q13191)
T1 construct: MSD-Based Assay for Degradation of Cbl-B in THP-1 Cells; endogenous in cells; host or cells: THP-1 (title) / Jurkat (protocol text)
Experiment: MSD-based assay for degradation of Cbl-B in THP-1 cells
Format: cell-based
Protocol: MSD-Based Assay for Degradation of Cbl-B in THP-1 Cells
Assay plates were then shaken at 600 rpm for 5 minutes, followed by incubation for 24 hours in the 37° C. TC incubator. […] Cell debris was then spun down at maximum speed (about 3200 g) for 30 min and lysates frozen in the −80° C. fridge. Meanwhile, MSD plates (L15XA-3) were coated overnight at 4° C. with 1 ug/mL capture antibody (Anti-Cbl-B antibody, 246C5a and Mouse mAB, ab54362). […] Blocking buffer was 3% Blocker A (MSD, R93BA-4) in TBST. Plates were washed 3× with 150 ul/well of 1×TBST and sample lysates (70 ul/well) then added, followed by shaking for 1 hr at RT, 600 rpm. […] Plates were again washed 3× with 150 ul/well of 1×TBST, followed by addition of Secondary Detection antibody, SULFO-TAG anti-species antibody (Anti Rabbit Antibody (R32AB-5) MSD, R32AB-1) at a final concentration of 1 ug/ml and 25 uL/well, followed by shaking for 1 hr at RT, 600 rpm. Plates were again washed 3× with 150 ul/well of 1×TBST, followed by addition of 1×MSD reading buffer (MSD, R92TC-2), 150 ul/well, diluted from 4× with water.
Compound Dmax were binned into A through D as follows: A indicates >70%, B indicates 50-70%, C indicates 30-50%, D indicates <30%.

[1] = Cbl-B degradation, Jurkat cells seeded (heading: THP-1 cells), 24 hours incubation, MSD readout
[2] = Cbl-B degradation, Jurkat cells seeded (heading: THP-1 cells), 24 hours incubation, MSD readout, read-out: Dmax

T1 sequence (Q13191 whole entry): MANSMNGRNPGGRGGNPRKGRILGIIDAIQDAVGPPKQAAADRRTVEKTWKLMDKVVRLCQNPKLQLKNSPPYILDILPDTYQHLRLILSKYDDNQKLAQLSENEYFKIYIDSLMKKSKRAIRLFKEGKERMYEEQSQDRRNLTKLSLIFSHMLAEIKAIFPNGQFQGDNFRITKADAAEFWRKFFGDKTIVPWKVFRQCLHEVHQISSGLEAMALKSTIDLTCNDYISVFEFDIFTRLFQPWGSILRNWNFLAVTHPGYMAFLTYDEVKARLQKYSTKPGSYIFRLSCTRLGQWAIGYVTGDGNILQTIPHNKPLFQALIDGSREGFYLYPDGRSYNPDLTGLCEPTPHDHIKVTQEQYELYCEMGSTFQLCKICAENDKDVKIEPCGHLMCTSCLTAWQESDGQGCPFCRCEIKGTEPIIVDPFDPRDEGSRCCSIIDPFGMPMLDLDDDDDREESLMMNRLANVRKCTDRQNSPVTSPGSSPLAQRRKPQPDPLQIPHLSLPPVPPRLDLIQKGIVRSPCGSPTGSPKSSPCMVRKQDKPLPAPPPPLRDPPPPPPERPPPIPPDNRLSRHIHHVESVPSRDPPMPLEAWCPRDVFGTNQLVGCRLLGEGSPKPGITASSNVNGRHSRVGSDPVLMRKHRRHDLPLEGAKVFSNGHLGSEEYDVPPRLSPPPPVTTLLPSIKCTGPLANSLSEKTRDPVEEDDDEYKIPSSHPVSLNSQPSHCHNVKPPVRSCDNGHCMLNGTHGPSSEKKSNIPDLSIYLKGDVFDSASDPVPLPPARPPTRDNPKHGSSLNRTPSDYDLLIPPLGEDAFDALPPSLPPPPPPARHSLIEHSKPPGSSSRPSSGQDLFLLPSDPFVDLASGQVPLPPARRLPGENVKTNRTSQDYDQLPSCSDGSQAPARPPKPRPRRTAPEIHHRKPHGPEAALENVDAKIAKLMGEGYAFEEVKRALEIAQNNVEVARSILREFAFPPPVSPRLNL

SMILES | DC50 [1] [nM] | Dmax [2] [%] | Dmax (THP-1) [%]
Cn1cnnc1[C@@H](c1cccc(-n2cc3c(C(F)(F)F)cc(CN4CCC(OCCOCc5ccc(COCCNc6cccc7c6C(=O)N(C6CCC(=O)NC6=O)C7=O)cc5)CC4)cn3c2=O)c1)C1CCC1 (single isomer, unassigned) [Compound 5] | > 10000 | < 30 | –
Cn1cnnc1[C@H](c1cccc(-n2cc3c(C(F)(F)F)cc(CN4CCC(OCCOCc5ccc(COCCNc6cccc7c6C(=O)N(C6CCC(=O)NC6=O)C7=O)cc5)CC4)cn3c2=O)c1)C1CCC1 (single isomer, unassigned) [Compound 6] | 30 to 300 | 50 to 70 | –
Cn1cnnc1[C@@H](c1cccc(-n2cc3c(C(F)(F)F)cc(CN4CCC(N5CCN(c6ccc7c(c6)CN([C@@H]6CCC(=O)NC6=O)C7=O)CC5)CC4)cn3c2=O)c1)C1CCC1 (single isomer, unassigned) [Compound 40] | 1000 to 10000 | – | < 30
Cn1cnnc1[C@@H](c1cccc(-n2cc3c(C(F)(F)F)cc(CN4CCC(N5CCN(c6ccc7c(c6)CN([C@H]6CCC(=O)NC6=O)C7=O)CC5)CC4)cn3c2=O)c1)C1CCC1 (single isomer, unassigned) [Compound 41] | 1000 to 10000 | < 30 | –
Cn1cnnc1CC1(c2cccc(-n3cc4c(C(F)(F)F)cc(CN5CCC(OCCN6CCC(CN7CCN(c8ccc9c(c8)CN([C@@H]8CCC(=O)NC8=O)C9=O)CC7)CC6)CC5)cn4c3=O)c2)COC1 (single isomer, unassigned) [Compound 47] | 300 to 1000 | 50 to 70 | –
Cn1cnnc1[C@@H](c1cccc(-n2cc3c(C(F)(F)F)cc(CN4CCC(OCCN5CCC(CN6CCN(c7ccc8c(c7)CN([C@@H]7CCC(=O)NC7=O)C8=O)CC6)CC5)CC4)cn3c2=O)c1)C1CCC1 (single isomer, unassigned) [Compound 48] | 300 to 1000 | 30 to 50 | –
Cn1cnnc1CC1(c2cccc(-n3cc4c(C(F)(F)F)cc(CN5CCC[C@@H](OCCN6CCC(CN7CCN(c8ccc9c(c8)CN([C@@H]8CCC(=O)NC8=O)C9=O)CC7)CC6)C5)cn4c3=O)c2)COC1 (single isomer, unassigned) [Compound 49] | 300 to 1000 | 50 to 70 | –
Cn1cnnc1CC1(c2cccc(-n3cc4c(C(F)(F)F)cc(CN5CCC[C@@H](OCCN6CCC(CN7CCN(c8ccc9c(c8)CN([C@H]8CCC(=O)NC8=O)C9=O)CC7)CC6)C5)cn4c3=O)c2)COC1 (single isomer, unassigned) [Compound 50] | 30 to 300 | > 70 | –
Cn1cnnc1CC1(c2cccc(-n3cc4c(C(F)(F)F)cc(CN5CCC[C@H](OCCN6CCC(CN7CCN(c8ccc9c(c8)CN([C@@H]8CCC(=O)NC8=O)C9=O)CC7)CC6)C5)cn4c3=O)c2)COC1 (single isomer, unassigned) [Compound 51] | 300 to 1000 | 50 to 70 | –
Cn1cnnc1CC1(c2cccc(-n3cc4c(C(F)(F)F)cc(CN5CCC[C@H](OCCN6CCC(CN7CCN(c8ccc9c(c8)CN([C@H]8CCC(=O)NC8=O)C9=O)CC7)CC6)C5)cn4c3=O)c2)COC1 (single isomer, unassigned) [Compound 52] | 30 to 300 | > 70 | –
Cn1cnnc1[C@@H](c1cccc(-n2cc3c(C(F)(F)F)cc(CN4CCC[C@@H](OCCN5CCC(CN6CCN(c7ccc8c(c7)CN([C@@H]7CCC(=O)NC7=O)C8=O)CC6)CC5)C4)cn3c2=O)c1)C1CCC1 (single isomer, unassigned) [Compound 53] | 1000 to 10000 | – | 50 to 70
Cn1cnnc1[C@@H](c1cccc(-n2cc3c(C(F)(F)F)cc(CN4CCC[C@@H](OCCN5CCC(CN6CCN(c7ccc8c(c7)CN([C@H]7CCC(=O)NC7=O)C8=O)CC6)CC5)C4)cn3c2=O)c1)C1CCC1 (single isomer, unassigned) [Compound 54] | 30 to 300 | > 70 | –
Cn1cnnc1CC1(c2cccc(-n3cc4c(C(F)(F)F)cc(CN5CCN(CCN6CCC(CN7CCN(c8ccc9c(c8)CN([C@@H]8CCC(=O)NC8=O)C9=O)CC7)CC6)CC5)cn4c3=O)c2)COC1 (single isomer, unassigned) [Compound 61] | 30 to 300 | – | 50 to 70
Cn1cnnc1[C@@H](c1cccc(-n2cc3c(C(F)(F)F)cc(CN4CCN(CCN5CCC(CN6CCN(c7ccc8c(c7)CN([C@H]7CCC(=O)NC7=O)C8=O)CC6)CC5)CC4)cn3c2=O)c1)C1CCC1 (single isomer, unassigned) [Compound 64] | < 30 | > 70 | –
Cn1cnnc1CC1(c2cccc(-n3cc4c(C(F)(F)F)cc(CN5CCC(OCCCN6CCN(c7ccc8c(c7)CN([C@@H]7CCC(=O)NC7=O)C8=O)CC6)CC5)cn4c3=O)c2)COC1 (single isomer, unassigned) [Compound 67] | > 10000 | – | < 30
Cn1cnnc1CC1(c2cccc(-n3cc4c(C(F)(F)F)cc(CN5CCC(OCCCN6CCN(c7ccc8c(c7)CN([C@H]7CCC(=O)NC7=O)C8=O)CC6)CC5)cn4c3=O)c2)COC1 (single isomer, unassigned) [Compound 68] | > 10000 | < 30 | –
Cn1cnnc1[C@@H](c1cccc(-n2cc3c(C(F)(F)F)cc(CN4CCC(OCCCN5CCN(c6ccc7c(c6)CN([C@@H]6CCC(=O)NC6=O)C7=O)CC5)CC4)cn3c2=O)c1)C1CCC1 (single isomer, unassigned) [Compound 71] | > 10000 | < 30 | –
Cn1cnnc1[C@@H](c1cccc(-n2cc3c(C(F)(F)F)cc(CN4CCC(OCCCN5CCN(c6ccc7c(c6)CN([C@H]6CCC(=O)NC6=O)C7=O)CC5)CC4)cn3c2=O)c1)C1CCC1 (single isomer, unassigned) [Compound 72] | > 10000 | 30 to 50 | –
Cn1cnnc1CC1(c2cccc(-n3cc4c(C(F)(F)F)cc(CN5CCC(OCCN6CCN(CC7CCN(c8ccc9c(c8)CN([C@@H]8CCC(=O)NC8=O)C9=O)CC7)CC6)CC5)cn4c3=O)c2)COC1 (single isomer, unassigned) [Compound 77] | 300 to 1000 | – | 30 to 50
Cn1cnnc1CC1(c2cccc(-n3cc4c(C(F)(F)F)cc(CN5CCC(OCCN6CCN(CC7CCN(c8ccc9c(c8)CN([C@H]8CCC(=O)NC8=O)C9=O)CC7)CC6)CC5)cn4c3=O)c2)COC1 (single isomer, unassigned) [Compound 78] | < 30 | 50 to 70 | –
Cn1cnnc1[C@@H](c1cccc(-n2cc3c(C(F)(F)F)cc(CN4CCC(OCCN5CCN(CC6CCN(c7ccc8c(c7)CN([C@@H]7CCC(=O)NC7=O)C8=O)CC6)CC5)CC4)cn3c2=O)c1)C1CCC1 (single isomer, unassigned) [Compound 79] | 1000 to 10000 | 30 to 50 | –
Cn1cnnc1[C@@H](c1cccc(-n2cc3c(C(F)(F)F)cc(CN4CCC(OCCN5CCN(CC6CCN(c7ccc8c(c7)CN([C@H]7CCC(=O)NC7=O)C8=O)CC6)CC5)CC4)cn3c2=O)c1)C1CCC1 (single isomer, unassigned) [Compound 80] | < 30 | 50 to 70 | –
Cn1cnnc1[C@@H](c1cccc(-n2cc3c(C(F)(F)F)cc(CN4CCC[C@H](OCc5ccc(CN6CCN(c7ccc8c(c7)CN([C@@H]7CCC(=O)NC7=O)C8=O)CC6)cc5)C4)cn3c2=O)c1)C1CCC1 (single isomer, unassigned) [Compound 81] | > 10000 | – | –
Cn1cnnc1CC1(c2cccc(-n3cc4c(C(F)(F)F)cc(CN5CCC[C@H](OCc6ccc(CN7CCN(c8ccc9c(c8)CN([C@@H]8CCC(=O)NC8=O)C9=O)CC7)cc6)C5)cn4c3=O)c2)COC1 (single isomer, unassigned) [Compound 83] | > 10000 | < 30 | –
Cn1cnnc1CC1(c2cccc(-n3cc4c(C(F)(F)F)cc(CN5CCC[C@H](OCc6ccc(CN7CCN(c8ccc9c(c8)CN([C@H]8CCC(=O)NC8=O)C9=O)CC7)cc6)C5)cn4c3=O)c2)COC1 (single isomer, unassigned) [Compound 84] | 30 to 300 | 30 to 50 | –
Cn1cnnc1[C@@H](c1cccc(-n2cc3c(C(F)(F)F)cc(CN4CCC(CN5CCN(c6ccc7c(c6)CN([C@@H]6CCC(=O)NC6=O)C7=O)CC5)CC4)cn3c2=O)c1)C1CCC1 (single isomer, unassigned) [Compound 85] | > 10000 | 30 to 50 | –
Cn1cnnc1[C@@H](c1cccc(-n2cc3c(C(F)(F)F)cc(CN4CCC(CN5CCN(c6ccc7c(c6)CN([C@H]6CCC(=O)NC6=O)C7=O)CC5)CC4)cn3c2=O)c1)C1CCC1 (single isomer, unassigned) [Compound 86] | 1000 to 10000 | 30 to 50 | –
Cn1cnnc1[C@@H](c1cccc(-n2cc3c(C(F)(F)F)cc(CN4CCC(OCCOCc5ccc(CN6CCN(c7ccc8c(c7)CN([C@@H]7CCC(=O)NC7=O)C8=O)CC6)cc5)CC4)cn3c2=O)c1)C1CCC1 (single isomer, unassigned) [Compound 87] | 300 to 1000 | 30 to 50 | –
Cn1cnnc1[C@@H](c1cccc(-n2cc3c(C(F)(F)F)cc(CN4CCC(OCCOCc5ccc(CN6CCN(c7ccc8c(c7)CN([C@H]7CCC(=O)NC7=O)C8=O)CC6)cc5)CC4)cn3c2=O)c1)C1CCC1 (single isomer, unassigned) [Compound 88] | < 30 | > 70 | –
